Experimental data published in US20100048462A1, “TRUNCATED PTH PEPTIDES WITH A CYCLIC CONFORMATION” (Zealand Pharma A/S, priority 2006, published 2010).
Bridge positions count the residues as written; N and C are the ends. Square brackets hold non-standard residues; d marks the D form. Peptide text beside a SMILES is read from it. I, II: the chains in the order shown. hArg = N=C(N)NCCCC[C@H](N)C(=O)O; Ac5c = NC1(C(=O)O)CCCC1; Aib = CC(C)(N)C(=O)O

Target: T1, Saos-2 PTH1R (Homo sapiens, UniProt Q03431)
T1 construct: endogenous in cells; host or cells: Saos-2
T1 sequence (Q03431 27-593): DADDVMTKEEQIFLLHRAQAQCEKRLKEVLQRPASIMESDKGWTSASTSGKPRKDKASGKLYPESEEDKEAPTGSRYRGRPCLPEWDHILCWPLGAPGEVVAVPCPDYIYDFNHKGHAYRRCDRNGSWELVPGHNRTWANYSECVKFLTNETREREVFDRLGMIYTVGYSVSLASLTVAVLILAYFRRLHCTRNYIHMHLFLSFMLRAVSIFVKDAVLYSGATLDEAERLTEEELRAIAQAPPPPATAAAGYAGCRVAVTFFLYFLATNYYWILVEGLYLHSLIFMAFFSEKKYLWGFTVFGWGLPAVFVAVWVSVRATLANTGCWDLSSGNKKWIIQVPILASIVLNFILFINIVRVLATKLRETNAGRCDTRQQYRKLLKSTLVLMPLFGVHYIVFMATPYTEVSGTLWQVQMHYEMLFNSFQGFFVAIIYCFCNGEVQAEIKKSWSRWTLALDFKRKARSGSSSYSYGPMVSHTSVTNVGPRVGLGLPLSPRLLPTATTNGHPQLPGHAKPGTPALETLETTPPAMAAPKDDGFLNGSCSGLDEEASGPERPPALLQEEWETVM
Experiment: cAMP-efficacy assay in Saos-2 cells
Format: cell-based
Conditions: for Emax ± SEM: relative effect to the control (SEQ ID NO: 32)
Method in brief: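 Saos-2 cells, grown two days after seeding at 50,000 cells/well, were exposed to peptide for 15 min at 37 °C in Tyrode's buffer with 0.1% BSA and 100 μM IBMX. After stopping with cold HCl, cAMP was measured by radioimmunoassay FlashPlate. EC50, pEC50, Hill slope and Emax came from a four-parameter sigmoidal fit.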

CC[C@H](C)[C@H](NC(=O)[C@H](CCC(=O)O)NC(=O)C(C)(C)NC(=O)[C@@H](NC(=O)C1(N)CCCC1)C(C)C)C(=O)N[C@@H](CCC(N)=O)C(=O)N[C@@H](CC(C)C)C(=O)N[C@@H](CC(C)C)C(=O)N[C@@H](Cc1c[nH]cn1)C(=O)N[C@@H](CCC(N)=O)C(=O)N[C@@H](CCCCNC(=N)N)C(=O)N[C@@H](C)C(=O)N[C@H]1CCCCNC(=O)C[C@@H](C(N)=O)NC(=O)[C@H](CC(N)=O)NC(=O)[C@H](CC(C)C)NC(=O)[C@H](Cc2c[nH]c3ccccc23)NC1=O [SEQ ID NO: 19, H-Ac5c-Val-Aib-Glu-Ile-Gln-Leu-Leu-His-Gln-Har-Ala-Lys( )-Trp-Leu-Asn-Asp( )-NH2] (H-[Ac5c]V[Aib]EIQLLHQ[hArg]AKWLND-NH2; lactam 13-17)
EC50 (cAMP, 100 μM IBMX, 37° C. 15 min, suffix of label = salt tested): 10.2 nM
Emax ± SEM: 1.05 ± 0.04

CC[C@H](C)[C@H](NC(=O)[C@H](CCC(=O)O)NC(=O)C(C)(C)NC(=O)[C@@H](NC(=O)C1(N)CCCC1)C(C)C)C(=O)N[C@@H](CCC(N)=O)C(=O)N[C@@H](CC(C)C)C(=O)N[C@@H](CCSC)C(=O)N[C@@H](Cc1c[nH]cn1)C(=O)N[C@@H](CCC(N)=O)C(=O)N[C@@H](CCCCNC(=N)N)C(=O)N[C@@H](C)C(=O)N[C@H]1CCCCNC(=O)C[C@@H](C(N)=O)NC(=O)[C@H](CC(C)C)NC(=O)[C@H](Cc2c[nH]c3ccccc23)NC(=O)[C@@H](NC(=O)[C@H](C)NC(=O)[C@H](CCCCNC(=N)N)NC(=O)[C@H](CCC(N)=O)NC(=O)[C@H](Cc2c[nH]cn2)NC(=O)[C@H](CCSC)NC(=O)[C@H](CC(C)C)NC(=O)[C@H](CCC(N)=O)NC(=O)[C@@H](NC(=O)[C@H](CCC(=O)O)NC(=O)C(C)(C)NC(=O)[C@@H](NC(=O)C2(N)CCCC2)C(C)C)[C@@H](C)CC)CCCCNC(=O)C[C@@H](C(N)=O)NC(=O)[C@H](CC(C)C)NC(=O)[C@H](Cc2c[nH]c3ccccc23)NC1=O [SEQ ID NO: 33, (H-Ac5c-Val-Aib-Glu-Ile-Gln-Leu-Met-His-Gln-Har-Ala-Lys( )-Trp-Leu-Asp( )-NH2)2] (I: H-[Ac5c]V[Aib]EIQLMHQ[hArg]AKWLD-NH2 / II: H-[Ac5c]V[Aib]EIQLMHQ[hArg]AKWLD-NH2; amide I:13-II:16, I:16-II:13 (inferred))
Emax ± SEM: 1.10 ± 0.04
